Assay results from patent US20050148069A1, “IGF-1 instructs multipotent adult CNS neural stem cells to an oligodendroglial lineage” (priority 2003, published 2005).

Key:
Smad6 = test: quantitative real time PCR, Smad6 expression; type: cell-based, rat; conditions: 500 ng/ml IGF-I, up to 48 hours, normalized to GAPDH
Excerpt: (§1) If IGF-I induction of oligodendrocyte differentiation involves the inhibition of BMP signaling, a change in the expression of BMP antagonists after IGF-I treatment might be observed. In addition to extracellular antagonists of BMP signaling, such as Noggin, intracellular proteins that can interfere with downstream BMP receptor signaling, called inhibitory Smads (Smad6, 7), have also been identified (Christian and Nakayama, 1999). Therefore, we performed Q-PCR analyses of cultures treated with IGF-I after various time points (up to 48 hours) and examined the relative fold change (normalized to an internal control; see Methods) of Noggin, Smad6, 7 (FIG. 6, A-C). Expression of Noggin, Smad6, 7 increased by at least 6-, 5-, and 2-fold, respectively, after IGF-I treatment (p<0.05, t-test). There may be an unexplained downregulation of Smad6 at the 48-h time point.
(§2) Total RNA was isolated from cell cultures using RNeasy columns (Qiagen). For real-time quantitative PCR, reactions were carried out essentially as described (Zhao et al., 2001). The relative amount of the tested message was normalized to the level of the internal control message, GAPDH. […] Primer sequences are available upon request.

[1] = test system: adult hippocampus-derived neural progenitor cells; test: in vitro differentiation analysis of neural progenitor cells (immunocytochemistry for lineage markers); type: cell-based, rat
Procedure: The neural progenitor cells isolated from the hippocampus of female Fischer 344 used in this study have been characterized previously (Gage et al., 1995; Palmer et al., 1997). The whole brain-derived neural stem cells from PIO ICR mice were isolated and cultured according to the methods as described, with slight modifications. Cells were cultured as previously described (Gage et al., 1995; Ray et al., 1993). Cells between passages 10 and 20 were used for in vitro differentiation analyses. To induce differentiation, cells were plated into 4-well chamber slides at a density of 55,000-75,000 cells per well and were allowed to proliferate in N2-supplemented (Invitrogen) DMEM:F12 (Omega Scientific) medium containing 20 ng/ml FGF-2 (PeproTech, Inc.) for 24 hours. FGF-2 was then withdrawn and cells were subsequently treated with differentiation media. […] For IGF-induction experiments, cells were trypsinized, washed with 1× PBS, and plated into insulin-free N2 medium. […] In some cultures, BrdU (2.5 μM, Sigma) was added to label dividing cells, and Q-VD-OPh (2 μM, Enzyme Systems Products) was added to prevent apoptosis.
Cells were fixed with 4% paraformaldehyde, followed by immunocytochemical staining as described (Palmer et al., 1999). Labeled cells were visualized using a Nikon E800 upright microscope or a Nikon E600 inverted microscope (Nikon Inc.) and a Spot RT CCD camera (Diagnostic Instruments Inc.). 4′,6-diamidino-2-phenylindole (DAPI) was used to identify individual cells. Quantification of cell phenotypes was with StereoInvestigator (MicroBrightfield Inc.); for each marker, 500-1000 cells were sampled systematically from standardized fields at 40×magnification. For quantification of live/dead cells, images were taken of cultures live-stained with propidum iodide (1 μg/ml; Molecular Probes) and Hoescht 33342 (1 μg/ml; Sigma) at 10×magnification, and cells were counted using Image-Pro (Media Cybernetics). The following primary antibodies were used: rabbit anti-Tuj1 (1:7500;Covance), mouse anti-RIP (1:25-1:75; Hybridoma Bank); guinea pig anti-GFAP (1:500-1:2500; Advanced Immunochemical, Inc.); rabbit anti-MBP (1:500; Chemicon International Inc.), rat anti-BrdU (1:400; Accurate). Secondary antibodies were all from Jackson ImmunoResearch and used at 1:250 dilution. The detection of BrdU in cultured cells required treatment in 2 N HCL at 37° C. for 30 min (Palmer et al., 1999). All experiments were independently replicated at least 3 times.

[2] = test system: oligodendrocytes in the hilus of the adult rat hippocampus; test: IGF-I overexpression in vivo in the hippocampus (hilus), immunohistochemistry; conditions: 4 weeks after injection
Procedure: cDNA encoding the human IGF-I gene was cloned into a recombinant AAV vector and the virus was prepared as previously described (Kaspar et al., 2002). Expression of IGF-I and {overscore (β)}gal (control AAV) was first confirmed in human embryonic kidney (HEK-293) cells by RT-PCR and Western analysis and subsequently in the hippocampus by RT-PCR analysis (unpublished data). Recombinant AAV-IGF-I (rAAV-IGF-I) or AAV-{overscore (β)}gal (rAAV-{overscore (β)}gal) was stereotaxically injected into the hippocampus (anteroposterior axis, −4.0 mm; mediolateral axis, +2.0 mm; dorsoventral axis, −3.0 from skull, with nose bar at 3.3 mm up) of anesthetized female Fischer-344 rats (150-175 g; n=6). […]
All comparative analyses were focused on the hilus of the injected side on matched hippocampal sections. For RIP or MBP staining, immunofluorescence average pixel intensity of equivalent sized fields (4 from each animal) in control and experimental groups was determined from digital images using Adobe Photoshop. To quantify the number of oligodendrocytes, sections were immunostained with GST-π. Only immunolabeled cells with a clear DAPI-positive nucleus were scored. For quantification of GST-π cells, area counts of the hilus within the dentate gyrus of the hippocampus were performed. […] The results are expressed as the average number of cells per section.

Smad7 = test: quantitative real time PCR, Smad7 expression; type: cell-based, rat; conditions: 500 ng/ml IGF-I, up to 48 hours, normalized to GAPDH
Excerpt: as §1, §2

Substance: IGF-I: human recombinant IGF-I (R&D Systems), growth factor polypeptide
- relative fold change of Smad6 expression (Smad6): ≥ 5 fold
- RIP+ cells ([1]; 500 ng/ml IGF-1 added to Q-VD-OPh-treated 2-day cultures): large increase in RIP+ cells
- total cells positive for myelin basic protein (MBP) ([1]; 500 ng/ml IGF-I, 4-day time point): Approximately 23%
- overall number of RIP+ cells over time ([1]; 500 ng/ml IGF-I, 12 h to 48 h): progressive increase in the overall number of RIP+ cells over time
- percentage of RIP+ cells ([1]; 500 ng/ml, 4 days, insulin-free N2 medium): 45-55%
- dose dependence of oligodendrocyte differentiation ([1]; 20-500 ng/ml, 4-day cultures): occurred in a dose-dependent manner
- percentage of Tuj1-positive cells across tested concentrations ([1]; 20-500 ng/ml, 4-day cultures): did not appear to change
- rank order of potency for oligodendrocyte differentiation ([1]; different concentrations (20-1000 ng/ml)): IGF-I>IGF-II>insulin
- GFAP+ astrocytes ([1]; each at 500 ng/ml, 4 days): few to no GFAP+ astrocytes
- oligodendrocyte-promoting effects in other rat lines ([1]; independently derived rat hippocampus progenitor cell line and clonally derived line (unpublished data)): confirmed
- GFAP staining vs control animals [2]: no observable difference in GFAP staining
- relative fold change of Smad7 expression (Smad7): ≥ 2 fold
